We go through 2 molecules from patent US20260283124A1, “NON-HUMAN ANIMAL, KIT, AND METHOD FOR PRODUCING REPLACEMENT ORGAN” (THE JIKEI UNIVERSITY, priority 2023, published 2026).

Entries after “also recorded” stand apart in the source; their conditions may differ. Read-outs that look alike come from different tables or passages of the source.

Series [1] concerns NPCs. The series can be described thus: Culture of fetal kidney of single allele knock-in (heterozygous) mice with CID and/or AT406. The class given is cell-based, mouse.
The test system of series [2] is nephron progenitor cells. Description: Kidney organoid from nephron progenitor cells of Six2-iCaspase9-tdTomato mouse, CID administration. The class given is cell-based. The following applies: with CID administration. The procedure: Nephron progenitor cells were isolated from the Six2-iCaspase9-tdTomato mouse prepared in Experimental Example 1, and a kidney organoid was prepared by three-dimensional culture. AP20187 (hereinafter, referred to as CID) was administered to the kidney organoid.

Series [3] relates to Six2-positive nephron progenitor cells. The series can be described thus: Organ culture on Transwell of E11 fetal kidney of Six2-iCaspase9-tdTomato mouse with CID in medium. The series is classed as cell-based. The settings on record: for Expression of tdTomato fluorescence in nephron progenitor cells: second day after administration. As for the experimental part:
The kidney was excised from an E11 fetus of the Six2-iCaspase9-tdTomato mouse prepared in Experimental Example 1, and organ culture was performed on a Transwell. In the group in which AP20187 (CID) was administered to the culture medium, the expression of tdTomato fluorescence in nephron progenitor cells was reduced on the second day after administration (see FIG. 4).

The test system is the same in series [4]. The series can be described thus: Intraperitoneal administration to neonatal Six2-iCaspase9-tdTomato mice, kidneys collected 48 hours later. The class given is in vivo, mouse. The procedure:
AP20187 (CID) was intraperitoneally administered to neonatal Six2-iCaspase9-tdTomato mice prepared in Experimental Example 1, and the […] mouse kidneys were collected 48 hours later.

For series [5] the test system is unchanged. The series can be described thus: TUNEL staining of organ-cultured E13 fetal kidney of Six2-iCaspase9-tdTomato mouse. The class given is cell-based. The following applies: 100 nM CID, 12 hours after administration. The procedure:
The kidney was excised from an E13 fetus of the Six2-iCaspase9-tdTomato mouse prepared in Experimental Example 1, and organ culture was performed on a Transwell. Apoptosis was evaluated by TUNEL staining after collection at 12 and 18 hours following the administration of 100 nM CID to the culture medium.

The subject of series [6] is NPCs. The series can be described thus: Culture of kidneys of E13.5 fetuses of both allele knock-in (homozygous) mice with CID. The class given is cell-based, mouse. The following applies: 100 nM of CID, homozygous E13.5 fetal kidney culture. The procedure:
In a case where the kidneys of E13.5 fetuses of both allele knock-in (homozygous) mice were collected, CID was added thereto, and the kidneys were cultured, it was confirmed that 90% or more of NPCs were removed by adding 100 nM of CID (see FIG. 10).

Series [7] relates to NPCs. The series can be described thus: Subcutaneous administration to homozygous neonatal mice. The class given is in vivo, mouse.
Series [8] concerns NPCs. Description: Administration to heterozygous neonatal mice, CID alone or combined with AT406. The series is classed as in vivo, mouse.
Series [9] concerns NPCs. The series can be described thus: Intraperitoneal administration to pregnant dam carrying homozygous fetuses. The series is classed as in vivo, mouse. The source says: The CID was intraperitoneally administered to a pregnant dam carrying homozygous fetuses (see FIG. 15). As a result, it was confirmed that the kidney size of the neonates (PO) was reduced and the cap mesenchyme structure, which constitutes the nephrogenic niche formed by NPCs, was disrupted (see FIG. 16). […] Furthermore, a decrease in the number of glomeruli was also confirmed (see FIG. 18).

Series [10] deals with glomeruli. Description: Nephron replacement: rat renal progenitor cells injected into homozygous fetal kidney, CID-added culture medium, then transplanted into immunodeficient mice. The series is classed as in vivo, mouse. The following applies: rat RPCs injected, day 14 after transplant into immunodeficient mice. As for the experimental part:
It was verified whether or not the replacement of nephron could be induced by transplanting the exogenous NPC at the same time as the removal of the NPC of the fetal kidney (see FIG. 20). In a case where renal progenitor cells (RPCs) of rats were injected into a homozygous fetal kidney and cultured in a CID-added culture medium, it was confirmed that at the time point of day 4, the renal progenitor cells adhered to the ureteral bud of the host and formed a chimeric cap mesenchyme (see FIG. 21). In addition, in a case where the cells were transplanted into immunodeficient mice after the cell injection and allowed to develop in vivo, it was confirmed that at the time point of day 14, the rat-derived cells differentiated into glomeruli and renal tubules, and approximately 80% of the glomeruli were replaced with rat-derived cells. A rat distal tubule connected to the collecting duct derived from the fetal mouse kidney was also confirmed (see FIG. 22).

Setting [11] is: administration at E13.5, animal at 1 month of age.
Setting [12] is: intraperitoneal to pregnant dam, homozygous fetuses.

As to `CN[C@@H](C)C(=O)N[C@H]1CN(C(=O)CC(C)C)CC[C@H]2CC[C@@H](C(=O)NC(c3ccccc3)c3ccccc3)N2C1=O` [AT406], in [1] (single administration of AT406, heterozygous fetal kidney culture), the NPC removal result is “NPC removal did not occur”.
On to `CC[C@H](C(=O)N1CCCC[C@H]1C(=O)O[C@H](CCc1ccc(OC)c(OC)c1)c1cccc(OCC(=O)NCC(CNC(=O)COc2cccc([C@@H](CCc3ccc(OC)c(OC)c3)OC(=O)[C@@H]3CCCCN3C(=O)[C@@H](CC)c3cc(OC)c(OC)c(OC)c3)c2)CN(C)C)c1)c1cc(OC)c(OC)c(OC)c1` [CID, AP20187], for which, in series [2], the “Apoptosis of nephron progenitor cells (immunostained image)” value is on record as “subjected to apoptosis; also recorded: Induced cell death of nephron progenitor cells was observed”. In series [3] (day 3), the “Removal of Six2-positive nephron progenitor cells (immunostaining)” value is “removal of Six2-positive nephron progenitor cells was confirmed”. Moreover, the “Expression of tdTomato fluorescence in nephron progenitor cells” value in series [3] is given as “removal of nephron progenitor cells”; in series [3] (listed as AP20187), “reduced”. For the same molecule, in series [4], the “Nephron progenitor cell marker Six2 (immunostaining) in kidney” value was “disappeared; also recorded: removal of Six2-positive nephron progenitor cells in the neonatal kidney was observed”. Besides, the “Nephron progenitor cells (red, tdTomato fluorescence) in kidney” value was “disappeared due to apoptosis” in series [4] and “removal of Six2-positive nephron progenitor cells in the neonatal kidney was observed” in series [4] (listed as AP20187). Moreover, the “Apoptosis by TUNEL staining, co-localization with Six2-positive nephron progenitor cells” value in series [5] was “TUNEL positivity was observed”. Moreover, the NPCs removed in series [6] is recorded as ≥ 90%. The NPC removal result is “NPC removal was not confirmed” in series [1] (100 nM of CID alone, heterozygous fetal kidney culture); “NPC removal was confirmed” in series [7]; “NPC removal does not occur” in series [8]. Besides, the “Survival of animals after birth” value in [9] (administration at E11.5) is listed as “died due to severe renal failure”; in series [9] (administration at E13.5) it was “survival of animals was confirmed”. The “Serum urea nitrogen (BUN) compared with the control” value in series [9] (setting [11]) is on record as “significantly increased”. Further, the “Urinary albumin-to-creatinine ratio (ACR) compared with the control” value in [9] (setting [11]) is reported as “significantly increased”. Further, in [9] (setting [12]), the “Cap mesenchyme structure (nephrogenic niche formed by NPCs)” value is on record as “disrupted”. Moreover, the “Kidney size of the neonates (P0)” value in series [9] (setting [12]) is on record as “reduced”. The NPCs by immunostaining result in series [9] (setting [12]) was “disappearance of the NPCs was confirmed”. Also, the Number of glomeruli entry in [9] (setting [12]) was “decrease”. In addition, the “Glomeruli replaced with rat-derived cells” value in [10] is listed as “approximately 80%”.
